{"source": "paper PMC10373627", "about": "“The Stability of Synthetic Cathinones and the Study of Potential Intake Biomarkers in the Biological Material from a Case of 3-CMC Poisoning” (Journal of Analytical Toxicology, 2023)", "key": {"[1]": {"test": "Stability study in the authentic autopsy blood sample (HPLC-ESI-MS-MS / HPLC-ESI-MS)", "format": "in vitro ADME, human", "experimental": "(§1) Due to the positive result of the identification analysis of the fluid from the Venflon, the biological material (blood and urine) was properly preserved on the same day. In the case of the urine sample, the pH was first measured using a universal indicator paper (pH = 6.0). The blood sample was preserved in a tube with sodium fluoride (NaF) and potassium oxalate (KOx). The biological material was divided into three parts, each with a volume of 1 mL. The first part was stored at 4°C. The second part was acidified with 1 M HCl: 100 µL of HCl was added to 1 mL of the blood sample to obtain pH <7, and 50 µL of HCl was added to 1 mL of the urine sample to obtain pH = 4.2. The third part of the blood and urine samples was stored at −30°C.\n(§2) The 200 µL of blank, calibration and quality control (QC) blood samples and the person’s blood and urine samples were enriched with the addition of methanolic IS 4-CEC-d5. For the blood sample, the final IS concentration was 100 ng/mL, and for the urine sample, it was 1,000 ng/mL. A homogenizing element in the form of a 5-mm-diameter stainless steel bead was added to the Eppendorf Tubes containing the samples. The samples were then deproteinized with frozen acetonitrile (400 µL). The samples were then centrifuged, and the supernatant was evaporated in a stream of nitrogen in a 40°C sand bath. The dry residue was dissolved in 100 µL of a mixture of phase A and B solution in a volume ratio of 60:40 (v/v). Mobile phase A is a mixture of 2 mM ammonium formate and 0.2% formic acid solution in water (v/v), and phase B is a mixture of 2 mM ammonium formate and 0.2% formic acid solution in acetonitrile (v/v).\nAn Agilent 1200 liquid chromatograph (Agilent) equipped with a binary pump (G1312 A) and an autosampler (G1329 A) was used. The chromatographic separation was performed with a Poroshell 120 EC-C18 column (3.0 × 100 mm, particle size 2.7 μm, Agilent). The column was thermostated at 40°C.\nThe flow of the mobile phases through the chromatographic column occurred at a programmed gradient of mobile phase composition and flow rate (initially, 95% of phase A and 5% of phase B at a flow rate of 0.5 mL/min; then, the proportion of phases was increased linearly to 90% of phase B at a flow rate of 1.0 mL/min at 10 minutes, and the condition was maintained for 2 min). Subsequently, the proportion of phases was increased linearly to 95% of phase B at a flow rate of 1.0 mL/min at 15 minutes. The volume of the samples injected into the chromatographic column was 15 μL.\nA 6410 triple-quadrupole mass spectrometer (Agilent) with an electrospray ionization (ESI) source, operated under a positive mode, was used. The operational parameters of the ESI source were as follows: vaporizing temperature 350 °C, pressure of the nebulizing gas 40 psi, flow of the drying gas 9 L/min and capillary potential 3.5 kV. The multiple reaction monitoring (MRM) was employed. The fragmentation parameters of the analyzed compounds are listed in Table I. For the analysis of the selected potential biomarker, dihydro-3-CMC, the total ion current scanning mode was used in the m/z range of 50–650 amu.\nWhile planning the experiment, the limitation was the amount of the biological material secured during the autopsy, as it came from an authentic case. The reference point (day 1) was the extraction of the biological material stored at 4°C for 24 hours using the procedure described earlier. The deproteination was performed the day after the autopsy was conducted, and the biological material was preserved. Subsequently, all the adequately preserved biological material was examined similarly after 2, 4 and 12 months. These intervals were chosen on the basis of the time that elapses between the autopsy and the intervals on which toxicological examinations are most often ordered to the Toxicology Laboratory of the Department of Forensic Medicine in Krakow by the Prosecutor’s Office. […]"}, "[2]": {"test": "GC-MS identification of 3-CMC and its metabolites in the person's urine sample after derivatization", "format": "in vivo, human", "conditions": "fatal poisoning case; for presence in urine sample: GC-MS after acetylation; for amount present in urine sample: GC-MS after trimethylsilylation", "experimental": "The fluid from the Venflon was acetylated and then analyzed by gas chromatography coupled to mass spectrometry (GC--MS), as described by Synowiec et al. ([8]). Screening analysis was performed using a library developed by Pfleger, Maurer and Weber ([9]), which contains a broad group of compounds, including acetyl or trimethylsilyl derivatives, as well as the authors’ library of SCs ([8]). The analysis was conducted on the day of the autopsy, which was 2 days after the body was discovered.\nFollowing preliminary analytical results indicating the presence of chloromethcathinone (CMC), the liquid from the Venflon further underwent a trimethylsilylation process ([8]) to distinguish the constitutional isomer of CMC.\nThe same procedure was carried out in the urine sample after SPE, according to the methods described in the authors’ earlier works ([10], [11])."}, "[3]": {"test": "Stability study in the authentic autopsy urine sample (HPLC-ESI-MS-MS / HPLC-ESI-MS)", "format": "in vitro ADME, human", "experimental": "as §1\nas §2, with “acetonitrile (v/v). […]” for “acetonitrile (v/v).”\nA 6410 triple-quadrupole mass spectrometer (Agilent) with an electrospray ionization (ESI) source, operated under a positive mode, was used. […] The fragmentation parameters of the analyzed compounds are listed in Table I. For the analysis of the selected potential biomarker, dihydro-3-CMC, the total ion current scanning mode was used in the m/z range of 50–650 amu. […]"}, "[4]": {"parameters": "method as in PMID 30557825", "conditions": "cited from earlier work"}, "[5]": {"parameters": "method as in PMID 30557825", "conditions": "cited from earlier work", "remark": "listed apart in the source"}, "[6]": {"parameters": "method as in PMID 30636991", "conditions": "cited from earlier work"}, "[7]": {"parameters": "method as in PMID 32407550", "conditions": "cited from earlier work"}, "[8]": {"conditions": "any given storage conditions (4°C, 4°C + HCl, −30°C), 12 months"}}, "note": "Like-named read-outs stand apart in the source and are kept apart here."}
{"smiles": "CNC(C)C(O)c1cccc(Cl)c1", "note": "(centres unmarked) [dihydro-3-CMC]", "values": [{"measurement": "stability in blood sample", "setting": "[1]; [8]", "result": "high stability"}, {"measurement": "presence in urine sample", "setting": "[2]", "result": "mainly"}, {"measurement": "amount present in urine sample", "setting": "[2]", "result": "mainly present"}, {"measurement": "stability in urine sample", "setting": "[3]; [8]", "result": "high stability"}]}
{"smiles": "CNC(C)C(=O)c1ccc(Cl)cc1", "note": "(centres unmarked) [4-CMC, 4-chloromethcathinone]", "values": [{"measurement": "estimated time for complete degradation in blood", "setting": "[4]; room temperature", "result": 22, "unit": "days"}, {"measurement": "estimated time for complete degradation in blood", "setting": "[4]; stored at 5°C (refrigerated), blank blood enriched with 4-CMC", "result": "~4", "unit": "months"}, {"measurement": "half-life in blood sample", "setting": "[4]; stored at 5°C", "result": 24, "unit": "h"}, {"measurement": "estimated time for complete degradation in blood", "setting": "[4]; stored at −26°C", "result": 11.6, "unit": "months"}, {"measurement": "estimated time for complete degradation in urine", "setting": "[5]; 5°C", "result": 4.4, "unit": "months"}, {"measurement": "estimated time for complete degradation in urine", "setting": "[5]; 24°C", "result": 24, "unit": "days"}, {"measurement": "half-life in urine sample", "setting": "[5]; urine pH = 5", "result": "~2.5", "unit": "months"}, {"measurement": "estimated time for complete degradation in urine", "setting": "[5]; −26°C", "result": "> 3", "unit": "years"}, {"measurement": "decrease in concentration in serum sample", "setting": "[6]; 3 days of storage at 4°C, compared to original extraction", "result": 65, "unit": "%"}, {"measurement": "concentration in serum sample", "setting": "[6]; 113 days (∼3.7 months) after the original extraction", "result": "below the LOQ"}, {"measurement": "concentration in serum sample", "setting": "[6]; day 0", "result": 11.5, "unit": "ng/mL"}, {"measurement": "concentration in serum sample", "setting": "[6]; day 3, storage at 4°C", "result": 4.0, "unit": "ng/mL"}, {"measurement": "decrease in concentration in blood sample", "setting": "[7]; 3 days at 23°C", "result": 54, "unit": "%"}, {"measurement": "decrease in concentration in blood sample", "setting": "[7]; 30 days of storage at 4°C", "result": 63, "unit": "%"}, {"measurement": "total decay time in blood sample", "setting": "[7]; refrigerated storage, blood from an authentic case", "result": 90, "unit": "days"}, {"measurement": "stability in blood sample", "setting": "[7]; stored at −15°C, entire experiment (90 days)", "result": "stable"}]}
{"smiles": "CC(=O)NC(C)C(OC(C)=O)c1cccc(Cl)c1", "note": "(centres unmarked) [N-desmethyl-dihydro-3-CMC-2AC]", "values": [{"measurement": "presence in urine sample", "setting": "[2]", "result": "presence"}]}
{"smiles": "CC(=O)NC(C)C(=O)c1cccc(Cl)c1", "note": "(centres unmarked) [N-desmethyl-3-CMC-AC]", "values": [{"measurement": "presence in urine sample", "setting": "[2]", "result": "presence"}]}
{"smiles": "CNC(C)C(=O)c1cccc(Cl)c1", "note": "(centres unmarked) [3-CMC, 1-(3-chlorophenyl)-2-(methylamino)propan-1-one]", "values": [{"measurement": "decomposition on storage of the biological material", "setting": "[1]; 24 hours of storage at 4°C", "result": "significant decomposition"}, {"measurement": "time for which the parent substance could be detected in blood sample", "setting": "[1]; acidified blood sample, ∼4°C", "result": 4, "unit": "months"}, {"measurement": "time after which detection in blood sample was still possible", "setting": "[1]; blood stored at −30°C", "result": "≥ 12", "unit": "months"}, {"measurement": "detection in blood sample", "setting": "[1]; blood stored at ∼4°C, after 2 months", "result": "no longer detected"}, {"measurement": "3-CMC concentration in blood sample", "setting": "[1]; storage 4°C + HCl, 2 months since autopsy", "result": 580, "unit": "ng/mL"}, {"measurement": "3-CMC concentration in blood sample", "setting": "[1]; storage 4°C + HCl, 4 months since autopsy", "result": 150, "unit": "ng/mL"}, {"measurement": "3-CMC concentration in blood sample", "setting": "[1]; storage 4°C + HCl, 12 months since autopsy", "result": 0, "unit": "ng/mL"}, {"measurement": "3-CMC concentration in blood sample", "setting": "[1]; storage 4°C, 2 months since autopsy", "result": 0, "unit": "ng/mL"}, {"measurement": "3-CMC concentration in blood sample", "setting": "[1]; storage 4°C, 4 months since autopsy", "result": 0, "unit": "ng/mL"}, {"measurement": "3-CMC concentration in blood sample", "setting": "[1]; storage 4°C, 12 months since autopsy", "result": 0, "unit": "ng/mL"}, {"measurement": "3-CMC concentration in blood sample", "setting": "[1]; storage 4°C, 1 day since autopsy (reference point, 24 hours at 4°C)", "result": 880, "unit": "ng/mL"}, {"measurement": "3-CMC concentration in blood sample", "setting": "[1]; storage −30°C, 2 months since autopsy", "result": "2,200 ng/mL"}, {"measurement": "3-CMC concentration in blood sample", "setting": "[1]; storage −30°C, 4 months since autopsy", "result": "2,500 ng/mL"}, {"measurement": "3-CMC concentration in blood sample", "setting": "[1]; storage −30°C, 12 months since autopsy", "result": "1,100 ng/mL"}, {"measurement": "3-CMC concentration in blood sample", "setting": "[1]; stored at −30°C (frozen immediately)", "result": "> 2,000 ng/mL"}, {"measurement": "presence in urine sample", "setting": "[2]", "result": "presence"}, {"measurement": "amount present in urine sample", "setting": "[2]", "result": "trace amounts"}, {"measurement": "stability in urine sample", "setting": "[3]; after acidification and freezing, investigated period 12 months", "result": "stable throughout the investigated time period"}, {"measurement": "detection in urine sample", "setting": "[3]; urine pH ∼6, 4°C, after 2 months", "result": "impossible to detect"}]}
